Earlier results as cited in paper PMC4394704, “Structures and functions of insect arylalkylamine N-acetyltransferase (iaaNAT); a key enzyme for physiological and behavioral switch in arthropods” (Frontiers in Physiology, 2015).
Like-named read-outs stand apart in the source and are kept apart here.

Legend:
bNAT (basic aaNAT, NATb) = tested on: T1, bNAT (basic aaNAT, NATb); assay: N-acetyltransferase activity of purified fraction; assay type: biochemical, Periplaneta americana; conditions: co-substrate acetyl CoA; pH not given
T1 construct: native, purified from midgut; 28 kDa by SDS-PAGE; pH optimum 9-10
Source text: N-acetyltransferase activity of purified fraction on bNAT (basic aaNAT, NATb)

[1] = tested on: T2, aNAT (acidic aaNAT, NATa); assay: N-acetyltransferase activity of purified fraction; assay type: biochemical, Periplaneta americana; conditions: co-substrate acetyl CoA; pH not given
T2 construct: native, purified from testicular accessory gland; 28 kDa by SDS-PAGE; pH optimum 5-6
Source text: N-acetyltransferase activity of purified fraction on aNAT (acidic aaNAT, NATa)

[2] = target: T3, apaaNAT (aaNAT from A. pernyi) (Antheraea pernyi, UniProt A2SZ52); assay: N-acetyltransferase activity assay, recombinant enzyme; assay type: biochemical; conditions: optimal pH 8.0 printed for the enzyme, read-out: apparent Km
T3 construct: cDNA expressed in Sf9 cells by baculovirus
T3 sequence (A2SZ52 1-261): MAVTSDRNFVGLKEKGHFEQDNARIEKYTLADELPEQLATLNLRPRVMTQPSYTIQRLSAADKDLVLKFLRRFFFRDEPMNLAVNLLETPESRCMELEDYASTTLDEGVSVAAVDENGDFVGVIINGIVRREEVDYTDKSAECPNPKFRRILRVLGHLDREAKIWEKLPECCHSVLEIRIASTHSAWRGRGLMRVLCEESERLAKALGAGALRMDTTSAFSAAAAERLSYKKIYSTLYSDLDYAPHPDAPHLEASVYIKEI

COc1ccc2[nH]cc(CCN)c2c1 [Methoxy-TN]
Km (bNAT (basic aaNAT, NATb)): 200 µM
Km [1]: 25 µM

NC[C@H](O)c1ccc(O)cc1 [Octopamine]
Km (bNAT (basic aaNAT, NATb)): 385 µM
Km [1]: 20 µM

NC[C@H](O)c1ccc(O)c(O)c1 [Norepinephrine]
Km [1]: 28.6 µM

NCCc1ccc(O)cc1 [Tyramine]
Km (bNAT (basic aaNAT, NATb)): 15.7 µM
Km [1]: 28.6 µM

NCCc1ccc(O)c(O)c1 [Dopamine]
Km (bNAT (basic aaNAT, NATb)): 1520 µM
Km [1]: 25 µM

NCCc1c[nH]c2ccccc12 [tryptamine]
Km (bNAT (basic aaNAT, NATb)): 1330 µM
Km [1]: 25 µM
Km ([2]; substrate inhibition above 0.03 mM with 0.11 mM acetyl CoA): 3.31 µM

CC(=O)SCCNC(=O)CCNC(=O)[C@H](O)C(C)(C)COP(=O)(O)OP(=O)(O)OC[C@H]1O[C@@H](n2cnc3c(N)ncnc32)[C@H](O)[C@@H]1OP(=O)(O)O [acetyl CoA]
Km [2]: 1.42 µM

NCCc1c[nH]c2ccc(O)cc12 [5HT]
Km (bNAT (basic aaNAT, NATb)): 325 µM
Km [1]: 50 µM
